# Measured values: patent US20080090881A1, “TREATMENT OF DIABETES WITH THIAZOLIDINEDIONE AND METFORMIN” (SmithKline Beecham plc, priority 1997, published 2008)
# Test: clinical
# Conditions: male, human, plasma, po
Tmax,half-life,SMILES
3 h,–,"CN(C)C(=N)N=C(N)N [M, 1,1-Dimethylbiguanidine, reference compound]"
3 h,3.24 h,"CN(CCOc1ccc(CC2SC(=O)NC2=O)cc1)c1ccccn1 (stereo not drawn) [Compound (I), 5-[4-[2-(N-methyl-N-(2-pyridyl)amino)ethoxy]benzyl]thiazolidine-2,4-dione]"
